Legend:
cathepsin G (cat G) = target: T1, cathepsin G (cat G) (Homo sapiens, UniProt P08311); test: Inactivation of cathepsin G by biotin-isocoumarins (incubation method); type: biochemical; conditions: inhibitor 75-400 μM; pH 7.5, 25° C.; NI = no inhibition after 10 min of incubation; read-out: kobs/[I] Cat. G
T1 sequence (P08311 21-255): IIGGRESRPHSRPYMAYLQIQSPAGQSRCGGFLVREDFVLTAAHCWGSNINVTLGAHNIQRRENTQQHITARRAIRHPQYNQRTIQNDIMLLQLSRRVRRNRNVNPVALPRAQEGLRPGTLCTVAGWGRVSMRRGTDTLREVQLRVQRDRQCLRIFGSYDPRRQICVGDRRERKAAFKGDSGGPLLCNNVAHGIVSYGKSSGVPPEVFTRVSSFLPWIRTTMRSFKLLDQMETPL
Experimental: (§1) Inactivation rates of serine proteases by substituted isocoumarins were measured by the incubation method. An aliquot of inhibitor (25 or 50 μl) in Me2 SO was added to a buffered enzyme solution (0.01-2.3 μM) to initiate the inactivation. Aliquots (50-100 μl) were withdrawn at various intervals and the residual enzymatic activity was measured. Me2 SO concentration in the reaction mixture was 8-12% (v/v). 0.1M Hepes, 0.5M NaCl, pH 7.5 buffer was utilized for the assays of chymotrypsin, cathepsin G (cat G), porcine pancreatic elastase (PPE), human leukocyte elastase (HLE) and rat granule serine proteases. 0.1M Hepes, 0.01M CaCl2, pH 7.5 buffer was utilized for the assays of trypsin and human recombinant (HR) granzyme A. The inhibitor concentrations are shown in the Tables I and II. Peptide nitroanilides with appropriate sequence were used as substrates for various serine proteases. All peptide 4-nitroanilide hydrolysis was measured at 410 nm (ε410 =8800M^-1 cm^-1; Erlanger et al., Arch. Biochem. Biophys. 95, pp 271-278 (1961), incorporated herein by reference). Peptide thioester hydrolysis rates were measured with assay mixtures containing 4,4'-dithiodipyridine (ε324 =19800M^-1 cm^-1; Grasetti & Murray, Arch. Biochem. Biophys. 119, pp. 41-49 (1967), incorporated herein by reference). First order inactivation rate constant (kobs) were obtained from plots of ln (vt /vo) vs time, and the correlation coefficients were greater than 0.98.
(§2) ^a Inhibition was measured in 0.1 M Hepes, 0.5 M NaCl (or 0.01 M
(§3) CaCl2), pH 7.5 buffer, 5-10% Me2 SO and at 25° C.
(§4) SucVal-Pro-NA (0.48 mM) was used as the substrate for chymotrypsin and ca
(§5) G. MeOSuc-Ala-Ala-Pro-Val-NA (0.24-0.47 mM) and SucAla-Ala-Ala-NA
^c Inhibitor concentrations were 75-400 μM.
(§6) ^h No inhibition after 10 min of incubation of inhibitor and enzyme.
(§7) ^i Percentage of inhibition after 10 min of incubation of inhibitor

[1] = target: T2, human leukocyte elastase (HLE) (Homo sapiens, UniProt P08246); test: Inactivation of human leukocyte elastase by biotin-isocoumarins (incubation method); type: biochemical; conditions: inhibitor 1.6-210 μM; pH 7.5, 25° C.; read-out: kobs/[I] HLE
T2 sequence (P08246 30-267): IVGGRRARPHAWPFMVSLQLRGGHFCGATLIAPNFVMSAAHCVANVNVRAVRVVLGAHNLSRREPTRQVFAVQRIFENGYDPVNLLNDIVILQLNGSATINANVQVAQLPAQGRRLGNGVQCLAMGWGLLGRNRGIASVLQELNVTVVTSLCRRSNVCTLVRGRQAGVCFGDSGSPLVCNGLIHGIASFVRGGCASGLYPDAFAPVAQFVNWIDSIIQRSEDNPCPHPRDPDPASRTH
Experimental: as §1, §2, §3, §5
(§8) (0.29-0.48 mM) were used as the substrate for HLE and PPE respectively.
^d Inhibitor concentrations were 1.6-210 μM.

[2] = target: T3, human recombinant (HR) granzyme A (Homo sapiens, UniProt P12544); test: Inactivation of human recombinant granzyme A by biotin-isocoumarins (incubation method); type: biochemical; conditions: inhibitor 160-210 μM, pH 7.5, 25° C.
T3 sequence (P12544 29-262): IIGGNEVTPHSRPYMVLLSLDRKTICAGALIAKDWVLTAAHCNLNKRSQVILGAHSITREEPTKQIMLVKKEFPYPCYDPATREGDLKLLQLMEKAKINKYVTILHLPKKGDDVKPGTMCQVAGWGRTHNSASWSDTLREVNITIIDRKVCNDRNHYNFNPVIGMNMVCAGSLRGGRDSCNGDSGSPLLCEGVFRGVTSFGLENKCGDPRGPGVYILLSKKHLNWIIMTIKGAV
Experimental: as §1, §2, §3
(§9) ZGlu-Phe-Arg-NA (0.032 mM) was a substrate for trypsin. ZArg-SBzl (0.120
mM) was a substrate for human recombinant (HR) granzyme A.
^g Inhibitor concentrations were 160-210 μM.
as §6, §7

PPE [3] = target: T4, PPE (Sus scrofa, UniProt P00772); test: Elution of inhibited PPE from avidin-agarose column with NH2OH; type: biochemical, porcine
T4 sequence (P00772 27-266): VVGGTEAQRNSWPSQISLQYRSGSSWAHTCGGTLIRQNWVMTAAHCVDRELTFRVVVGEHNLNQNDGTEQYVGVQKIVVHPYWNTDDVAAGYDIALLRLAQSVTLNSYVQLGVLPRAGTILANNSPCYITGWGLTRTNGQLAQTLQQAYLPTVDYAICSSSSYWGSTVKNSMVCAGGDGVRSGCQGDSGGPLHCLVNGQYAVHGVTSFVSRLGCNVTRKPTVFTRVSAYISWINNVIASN
Experimental: Elution of inhibited PPE by 7-[6-(6-biotinylaminocaproyl)aminocaproyl]amino-4-chloro-3-methoxyisocoumarin from avidin-agarose column with NH2 OH.
PPE (1 mg, […]) was inhibited by biotinylated isocoumarin (0.5 mmole) in 0.1M Hepes, 0.5M NaCl, pH 7.5 buffer at 25° C. for 10 min, 7% of residual enzyme activity was found. Excess of inhibitors was removed by Sephadex G-25 column and the inhibited PPE was eluted with 0.1M acetate, 0.5M NaCl, pH 5.0 buffer and had 16% of enzyme activity. This inhibited enzyme solution was then applied on the avidin-agarose column and 34% of protein went through (measured by optical density at 280 nm). The column was washed with pH 5.0 acetate buffer, then eluted with 0.1M Hepes, 0.5M NaCl, and 0.5M NH2 OH, pH 7.5 buffer and 37% of protein was eluted out (measured by OD280) from the column. In these protein fractions, 40% of PPE activity was detected.

chymotrypsin [4] = target: T5, chymotrypsin (Bos taurus, UniProt P00766); test: Inactivation of chymotrypsin by biotin-isocoumarins (incubation method); type: biochemical, bovine; conditions: pH 7.5, inhibitor 20-400 μM; 0.1 M Hepes, 0.5 M NaCl, pH 7.5, 5-10% Me2SO, 25° C.; two values given for some compounds; read-out: kobs/[I] Chymotrypsin
Experimental: as §1, §2, §3, §4
^b Inhibitor concentrations were 20-400 μM.

[5] = target: porcine pancreatic elastase (PPE) (Sus scrofa, UniProt P00772); test: Inactivation of porcine pancreatic elastase by biotin-isocoumarins (incubation method); type: biochemical; conditions: inhibitor 38-78 μM; pH 7.5, 25° C.; NI = no inhibition after 10 min of incubation; read-out: kobs/[I] PPE
porcine pancreatic elastase (PPE), sequence (P00772 27-266): as above
Experimental: as §1, §2, §3, §5, §8
^e Inhibitor concentrations were 38-78 μM.
as §6

trypsin = target: T6, trypsin (Bos taurus, UniProt P00760); test: Inactivation of trypsin by biotin-isocoumarins (incubation method); type: biochemical; conditions: inhibitor 41-42 μM; 0.1 M Hepes, 0.01 M CaCl2, pH 7.5, 25° C.; read-out: kobs/[I] Trypsin
T6 sequence (P00760 24-246): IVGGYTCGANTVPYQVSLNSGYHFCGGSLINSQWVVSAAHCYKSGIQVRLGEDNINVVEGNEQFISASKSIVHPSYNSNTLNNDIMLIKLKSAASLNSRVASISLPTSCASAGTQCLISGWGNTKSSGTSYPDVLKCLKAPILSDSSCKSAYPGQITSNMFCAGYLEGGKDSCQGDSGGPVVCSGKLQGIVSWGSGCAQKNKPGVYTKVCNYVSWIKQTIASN
Experimental: as §1, §2, §3, §9
^f Inhibitor concentrations were 41-42 μM.

PPE [6] = target: T4, PPE; test: Reactivation of inhibited PPE in buffer and with NH2OH; type: biochemical, porcine
Experimental: (§10) ^a Inhibition was performed at 0.1 M Hepes, 0.5 M NaCl, pH 7.5 buffer
(§11) 10% Me2 SO and 25° C. Reactivation was carried out in the
(§12) presence of 0.4 M of NH2 OH, and occurred immediately after the
(§13) ^b Enzyme activity was measured after removal of excess inhibitor by
(§14) centrifugation at 0° C. with centricon10 microconcentrator and
(§15) staying at 25° C. for two days.

PPE [7] = target: T4, PPE; test: Effect of streptavidin and avidin on reactivation of inhibited PPE; type: biochemical, porcine; conditions: monitored for two days
Experimental: (§16) ^a Percentage of regained enzymatic activity was measured in 0.1 M
(§17) Hepes, 0.5 M NaCl, pH 7.5 buffer, 8% Me2 SO and at 25° C.
(§18) Excess inhibitor was removed from enzymeinhibitor mixture by
(§19) centrifugation twice with Amicon microconcentrator10. Then 3-4 units of
(§20) avidin or strepavidin was added and enzymatic activity was monitored for […]

Rat Granule Chymase [8] = test: Inhibition of rat granule chymase; type: biochemical; conditions: [I] 0.078 mM; inhibition not time dependent; pH 7.5, 10% Me2SO, 25° C.
Experimental: as §1, with “First order inactivation rate constant (kobs) were obtained from plots of ln (vt /vo) vs time, and the correlation coefficients were greater than 0.98.” left out
(§21) ^a Inhibition was measured in 0.1 M Hepes, 0.5 M NaCl, pH 7.5 buffer, […]

Rat Granule Tryptase = test: Inhibition of rat granule tryptase; type: biochemical; conditions: [I] 0.078 mM or 0.2 mM as per table line; pH 7.5, 10% Me2SO, 25° C.
Experimental: as §1, with “First order inactivation rate constant (kobs) were obtained from plots of ln (vt /vo) vs time, and the correlation coefficients were greater than 0.98.” left out
as §21

chymotrypsin [9] = target: T5, chymotrypsin; test: Reactivation of inhibited chymotrypsin in buffer and with NH2OH; type: biochemical, bovine
Experimental: as §10, §11, §12, §13, §14, §15

Rat Granule Chymase [10] = test: Reactivation of inhibited rat granule chymase with NH2OH; type: biochemical; conditions: 0.4 M NH2OH, immediately after addition
Experimental: as §10, §11
presence of 0.4 M of NH2 OH, and occurred immediately after the […]

chymotrypsin [11] = target: T5, chymotrypsin; test: Effect of streptavidin and avidin on reactivation of inhibited chymotrypsin; type: biochemical, bovine; conditions: monitored for two days
Experimental: as §16, §17, §18, §19, §20

[12] = 0.4 M NH2OH, immediately after addition
[13] = 3-4 units streptavidin, 2880 min

COc1oc(=O)c2cc(NC(=O)CCCCCNC(=O)CCCCCNC(=O)CCCCC3SCC4NC(=O)NC43)ccc2c1Cl (stereo not shown) [Compound 6, 7-[6-(6-biotinylaminocaproyl)aminocaproyl]-amino-4-chloro-3-methoxyisocoumarin]
kinact/KI (cathepsin G (cat G)): 2.2 M⁻¹ s⁻¹ | kinact/KI [1]: 37500 M⁻¹ s⁻¹ | Percentage of inhibition of HR Granzyme A after 10 min of incubation of inhibitor and enzyme [2]: 5% | enzyme activity of inhibited PPE after Sephadex G-25 removal of excess inhibitor (PPE [3]; eluted with 0.1M acetate, 0.5M NaCl, pH 5.0): 16% | PPE activity detected in eluted protein fractions (PPE [3]; fractions eluted with 0.5M NH2OH): 40% | residual enzyme activity of PPE after inhibition (PPE [3]; pH 7.5 buffer, 25° C., 10 min): 7%

CCCOc1oc(=O)c2cc(NC(=O)CCCC[C@@H]3SC[C@@H]4NC(=O)N[C@@H]43)ccc2c1Cl [Compound 2, 7-biotinylamino-4-chloro-3-propoxyisocoumarin]
kinact/KI (chymotrypsin [4]): 65 M⁻¹ s⁻¹ | kinact/KI (cathepsin G (cat G)): 6.7 M⁻¹ s⁻¹ | kinact/KI [1]: 19900 M⁻¹ s⁻¹ | kinact/KI [5]: 470 M⁻¹ s⁻¹ | kinact/KI (trypsin): 2.2 M⁻¹ s⁻¹ | % of Enzyme Activity Reactivated, PPE +NH2OH (PPE [6]; [12]): 98% | % of Enzyme Activity Reactivated, PPE in buffer (PPE [6]; after removal of excess inhibitor, 25° C. for two days, 2880 min): 35% | % of Regained Enzyme Activity, PPE, +Avidin (PPE [7]; 3-4 units avidin, 2880 min): 32% | % of Regained Enzyme Activity, PPE, +Streptavidin (PPE [7]; [13]): 51% | % of Regained Enzyme Activity, PPE, Buffer (PPE [7]; pH 7.5, 8% Me2SO, 25° C.): 35%

O=C(CCCC[C@@H]1SC[C@@H]2NC(=O)N[C@@H]21)NCCCCCC(=O)Nc1ccc2c(Cl)c(OCCc3ccccc3)oc(=O)c2c1 [Compound 3, 7-(6-biotinylaminocaproyl)amino-4-chloro-3-(2-phenylethoxy)isocoumarin]
kinact/KI [1]: 670 M⁻¹ s⁻¹ | kinact/KI (trypsin): 1 M⁻¹ s⁻¹ | Rat Granule Chymase % of inhibition (Rat Granule Chymase [8]): 30-50% | Rat Granule Tryptase kobs/[I] (Rat Granule Tryptase): 6 to 12 M⁻¹ s⁻¹ | % of Enzyme Activity Reactivated, Chymotrypsin +NH2OH (chymotrypsin [9]; [12]): 100% | % of Enzyme Activity Reactivated, Chymotrypsin in buffer (chymotrypsin [9]; after removal of excess inhibitor, 25° C. for two days): 10% | % of Enzyme Activity Reactivated, Rat granule chymase +NH2OH (Rat Granule Chymase [10]): 30-50% | % of Regained Enzyme Activity, Chymotrypsin, +Streptavidin (chymotrypsin [11]; [13]): 39% | % of Regained Enzyme Activity, Chymotrypsin, Buffer (chymotrypsin [11]; pH 7.5, 8% Me2SO, 25° C.): 15%

Reference: patent US5306824A, “Biotinylated isocoumarins” (Georgia Tech Research Corporation, priority 1992, dated 1994)
